Legend:
Experiment in all cases: CYP inhibition assay
Assay type in all cases: cell-based
CYP2C8 = target: T1, CYP2C8 (Homo sapiens, UniProt P10632)
T1 sequence (P10632 1-490): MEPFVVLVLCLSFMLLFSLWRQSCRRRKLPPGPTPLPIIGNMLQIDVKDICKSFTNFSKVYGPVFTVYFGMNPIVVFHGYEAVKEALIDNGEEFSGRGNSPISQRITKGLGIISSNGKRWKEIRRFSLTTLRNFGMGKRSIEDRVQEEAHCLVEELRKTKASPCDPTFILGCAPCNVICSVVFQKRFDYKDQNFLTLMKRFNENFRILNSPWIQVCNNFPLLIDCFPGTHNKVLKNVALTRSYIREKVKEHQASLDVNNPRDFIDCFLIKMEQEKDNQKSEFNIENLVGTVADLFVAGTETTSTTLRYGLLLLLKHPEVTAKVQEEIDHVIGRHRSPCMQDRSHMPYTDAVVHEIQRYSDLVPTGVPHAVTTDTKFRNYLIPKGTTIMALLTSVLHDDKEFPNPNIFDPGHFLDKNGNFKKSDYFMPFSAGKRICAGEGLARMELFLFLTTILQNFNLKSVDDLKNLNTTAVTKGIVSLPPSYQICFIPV

CYP2D6 = CYP2D6 (Homo sapiens, UniProt P10635)
Sequence of CYP2D6 (P10635 whole entry): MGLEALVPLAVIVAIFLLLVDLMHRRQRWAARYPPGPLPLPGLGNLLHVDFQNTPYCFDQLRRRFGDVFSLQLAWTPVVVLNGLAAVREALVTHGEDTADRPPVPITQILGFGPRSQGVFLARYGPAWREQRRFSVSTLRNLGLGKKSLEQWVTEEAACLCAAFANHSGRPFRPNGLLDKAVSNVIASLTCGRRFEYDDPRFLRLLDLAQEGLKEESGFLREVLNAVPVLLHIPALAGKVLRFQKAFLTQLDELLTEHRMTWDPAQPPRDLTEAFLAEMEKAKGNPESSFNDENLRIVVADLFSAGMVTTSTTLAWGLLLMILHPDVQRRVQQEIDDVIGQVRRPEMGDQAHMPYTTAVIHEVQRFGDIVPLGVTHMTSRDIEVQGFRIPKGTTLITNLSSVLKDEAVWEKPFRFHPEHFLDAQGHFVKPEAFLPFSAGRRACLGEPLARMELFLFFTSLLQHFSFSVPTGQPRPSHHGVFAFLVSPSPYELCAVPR

CYP2C19 = CYP2C19 (Homo sapiens, UniProt P33261)
Sequence of CYP2C19 (P33261 whole entry): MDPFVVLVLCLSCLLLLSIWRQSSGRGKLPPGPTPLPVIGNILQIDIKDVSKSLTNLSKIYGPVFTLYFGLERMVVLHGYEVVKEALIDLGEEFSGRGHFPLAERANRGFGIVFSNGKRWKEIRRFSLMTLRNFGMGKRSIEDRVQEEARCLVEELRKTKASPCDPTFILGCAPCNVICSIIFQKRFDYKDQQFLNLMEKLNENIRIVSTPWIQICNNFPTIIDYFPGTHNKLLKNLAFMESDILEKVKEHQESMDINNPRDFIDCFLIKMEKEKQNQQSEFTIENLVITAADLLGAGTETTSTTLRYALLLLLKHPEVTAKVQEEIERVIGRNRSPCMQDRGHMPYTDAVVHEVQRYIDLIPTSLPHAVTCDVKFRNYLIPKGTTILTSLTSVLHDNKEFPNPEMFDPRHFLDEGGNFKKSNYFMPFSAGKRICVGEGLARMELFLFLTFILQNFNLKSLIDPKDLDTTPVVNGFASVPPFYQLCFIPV

CYP1A = settings: read-out: CYP1A
CYP3A4 = CYP3A4 (Homo sapiens, UniProt P08684)
Sequence of CYP3A4 (P08684 2-503): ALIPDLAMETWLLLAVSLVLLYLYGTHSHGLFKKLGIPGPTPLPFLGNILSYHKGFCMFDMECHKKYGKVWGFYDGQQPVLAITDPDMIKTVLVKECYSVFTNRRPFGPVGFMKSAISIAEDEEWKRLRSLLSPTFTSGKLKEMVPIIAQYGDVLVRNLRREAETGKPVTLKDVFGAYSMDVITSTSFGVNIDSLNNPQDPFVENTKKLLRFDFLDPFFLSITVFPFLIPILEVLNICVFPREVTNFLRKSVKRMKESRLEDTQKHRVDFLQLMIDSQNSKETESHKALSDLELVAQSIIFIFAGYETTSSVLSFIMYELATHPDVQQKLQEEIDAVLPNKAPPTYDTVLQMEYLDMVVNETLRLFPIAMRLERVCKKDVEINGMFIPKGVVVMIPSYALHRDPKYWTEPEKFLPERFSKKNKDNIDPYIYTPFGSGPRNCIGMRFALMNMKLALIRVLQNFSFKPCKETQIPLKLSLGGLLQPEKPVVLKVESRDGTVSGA

CYP2C9 = CYP2C9 (Homo sapiens, UniProt P11712)
Sequence of CYP2C9 (P11712 whole entry): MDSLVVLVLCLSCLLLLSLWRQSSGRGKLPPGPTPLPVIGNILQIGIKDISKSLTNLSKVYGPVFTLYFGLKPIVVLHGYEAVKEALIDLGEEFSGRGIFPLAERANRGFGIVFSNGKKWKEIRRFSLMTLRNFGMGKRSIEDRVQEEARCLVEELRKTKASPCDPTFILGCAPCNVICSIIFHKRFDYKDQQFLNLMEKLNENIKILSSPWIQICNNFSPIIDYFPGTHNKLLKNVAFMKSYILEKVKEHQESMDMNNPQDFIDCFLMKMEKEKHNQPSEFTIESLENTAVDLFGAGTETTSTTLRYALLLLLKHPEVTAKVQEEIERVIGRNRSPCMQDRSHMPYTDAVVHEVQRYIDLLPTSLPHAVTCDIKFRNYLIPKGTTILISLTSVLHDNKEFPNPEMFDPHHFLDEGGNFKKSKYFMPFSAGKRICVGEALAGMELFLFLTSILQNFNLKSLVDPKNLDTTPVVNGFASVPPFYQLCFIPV

`CN(C[c-]1cccc1)CC(O)(Cn1cncn1)c1ccc(F)cc1F.Cl.[Fe+2].c1cc[cH-]c1` (stereo not shown) [2a, N-(ferrocenylmethyl)-2-(2,4-difluorophenyl)-2-hydroxy-N-methyl-3-(1H-1,2,4-triazol-1-yl)propan-1-aminium chloride] gave an IC50 (CYP2C8) of 640 ± 90 nM, an IC50 (CYP2D6) of 2710 ± 120 nM and an IC50 (CYP2C19) of under 400 nM. The IC50 (CYP1A) was 10.4 ± 0.41 µM, the IC50 (CYP3A4) was 400 ± 60 nM and the IC50 (CYP2C9) was 3.33 ± 0.71 µM.
With `OC(Cn1cncn1)(Cn1cncn1)c1ccc(F)cc1F` [Fluconazole] the IC50 (CYP1A) was over 100 µM.

From PMC8341145 (RSC Chemical Biology, 2021)
